Results as given in patent US11612661B2 (priority 2019, dated 2023).
Numbered stars: 1 amine (or outer) side, 2 acyl side, 3 side chain; on linkers, the order of the positions; unused ones are H or OH. Bridge positions count the residues as written; N and C are the ends. Square brackets hold non-standard residues; d marks the D form. Triazole bridges read from a SMILES are 1,4-linked. Peptide text beside a SMILES is read from it. Gly(αS-SH) = O=C([C@@H](N[*:1])S[*:3])[*:2]; Tyr(3-I) = N[C@@H](Cc1ccc(O)c(I)c1)C(=O)O; Orn(N3) = [N-]=[N+]=NCCC[C@H](N)C(=O)O; Dap(N3) = [N-]=[N+]=NC[C@H](N)C(=O)O; Aha = [N-]=[N+]=NCC[C@H](N)C(=O)O; Cit = NC(=O)NCCC[C@H](N)C(=O)O; Hpra = C#CCC[C@H](N)C(=O)O; Pra = C#CC[C@H](N)C(=O)O

Experiments:
rat α9α10 nAChR = rat α9α10 nAChR (Rattus norvegicus, UniProt P43144+Q9JLB5); experiment: cell-based; type: cell-based; settings: α9α10 nAChR IC50 (nM) Rat
human α9α10 nAChR = human α9α10 nAChR (Homo sapiens, UniProt Q9GZZ6+Q9UGM1); experiment: cell-based; type: cell-based
Sequence of human α9α10 nAChR (Q9UGM1 26-479 limits assumed): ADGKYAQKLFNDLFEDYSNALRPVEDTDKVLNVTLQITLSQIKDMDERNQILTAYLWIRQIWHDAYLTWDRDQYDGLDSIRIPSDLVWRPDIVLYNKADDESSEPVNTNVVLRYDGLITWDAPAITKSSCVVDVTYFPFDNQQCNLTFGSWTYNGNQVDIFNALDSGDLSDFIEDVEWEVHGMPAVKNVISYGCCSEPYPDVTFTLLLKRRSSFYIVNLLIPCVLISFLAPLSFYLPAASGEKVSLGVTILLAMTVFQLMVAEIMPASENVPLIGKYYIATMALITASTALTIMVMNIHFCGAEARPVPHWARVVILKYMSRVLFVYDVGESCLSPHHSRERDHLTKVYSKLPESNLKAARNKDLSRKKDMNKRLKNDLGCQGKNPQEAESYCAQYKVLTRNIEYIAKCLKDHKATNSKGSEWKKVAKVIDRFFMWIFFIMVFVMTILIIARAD
Sequence of human α9α10 nAChR (Q9GZZ6 25-450 limits assumed): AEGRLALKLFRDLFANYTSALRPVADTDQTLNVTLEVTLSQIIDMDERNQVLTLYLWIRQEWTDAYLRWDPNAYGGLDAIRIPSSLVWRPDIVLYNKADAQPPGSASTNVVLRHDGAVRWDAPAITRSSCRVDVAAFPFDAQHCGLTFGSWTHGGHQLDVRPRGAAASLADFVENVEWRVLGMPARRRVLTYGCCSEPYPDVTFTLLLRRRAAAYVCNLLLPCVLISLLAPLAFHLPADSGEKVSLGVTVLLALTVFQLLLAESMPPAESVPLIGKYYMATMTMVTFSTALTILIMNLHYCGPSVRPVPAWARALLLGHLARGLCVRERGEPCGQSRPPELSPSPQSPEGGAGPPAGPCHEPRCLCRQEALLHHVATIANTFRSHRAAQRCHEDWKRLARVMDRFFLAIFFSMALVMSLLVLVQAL

Sequence of rat α9α10 nAChR (P43144 26-479 limits assumed): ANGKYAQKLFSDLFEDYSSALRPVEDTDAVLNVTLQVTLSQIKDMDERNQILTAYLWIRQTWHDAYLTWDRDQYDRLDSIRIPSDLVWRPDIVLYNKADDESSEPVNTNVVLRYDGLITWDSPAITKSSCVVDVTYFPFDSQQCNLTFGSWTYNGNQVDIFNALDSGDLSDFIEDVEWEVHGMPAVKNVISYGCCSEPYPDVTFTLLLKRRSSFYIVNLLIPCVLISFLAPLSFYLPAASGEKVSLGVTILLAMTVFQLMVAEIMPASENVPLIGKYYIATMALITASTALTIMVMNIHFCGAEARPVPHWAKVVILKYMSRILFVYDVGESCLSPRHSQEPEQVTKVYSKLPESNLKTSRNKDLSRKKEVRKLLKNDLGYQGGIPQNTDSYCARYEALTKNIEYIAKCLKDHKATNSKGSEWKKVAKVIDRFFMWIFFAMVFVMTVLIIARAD
Sequence of rat α9α10 nAChR (Q9JLB5 25-447 limits assumed): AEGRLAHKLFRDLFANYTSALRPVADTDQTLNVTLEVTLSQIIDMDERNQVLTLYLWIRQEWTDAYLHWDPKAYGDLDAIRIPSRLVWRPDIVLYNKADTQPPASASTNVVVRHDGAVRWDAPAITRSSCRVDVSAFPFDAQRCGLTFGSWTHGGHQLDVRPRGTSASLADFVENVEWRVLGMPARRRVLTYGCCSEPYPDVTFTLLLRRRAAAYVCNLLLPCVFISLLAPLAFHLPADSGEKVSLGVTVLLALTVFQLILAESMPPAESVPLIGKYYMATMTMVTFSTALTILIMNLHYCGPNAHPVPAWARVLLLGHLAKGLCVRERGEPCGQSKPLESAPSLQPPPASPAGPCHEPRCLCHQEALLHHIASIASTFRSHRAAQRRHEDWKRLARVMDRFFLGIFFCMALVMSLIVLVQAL

| SMILES | IC50 (rat α9α10 nAChR) | IC50 (human α9α10 nAChR) |
| --- | --- | --- |
| C[C@@H](O)[C@@H]1NC(=O)[C@@H]2Cc3cn(nn3)CCC[C@@H](C(=O)N[C@@H](Cc3ccc(O)cc3)C(=O)O)NC(=O)[C@H](CCC(N)=O)NC(=O)[C@H](Cc3ccc(O)c(I)c3)NC(=O)[C@H](CCCNC(N)=O)NC(=O)[C@H](CSSC[C@H](NC(=O)CN)C(=O)N2)NC(=O)[C@H](CCCNC(=N)N)NC(=O)[C@@H]2CCCN2C(=O)[C@H](CC(=O)O)NC1=O [Ib, L-tyrosine, glycyl-L-cysteinyl-L-alanyl-L-threonyl-L-α-aspartyl-L-prolyl-L-arginyl-L-cysteinyl-N5-(aminocarbonyl)-L-ornithyl-L-3-iodotyrosyl-L-glutaminyl-L-norvalyl-cyclic (2→8)-disulfide-cyclic 3^3,12^5-(1H-1,2,3-triazole-4,1-diyl)] (H-GC[Pra]TDPRC[Cit][Tyr(3-I)]Q[Orn(N3)]Y-OH; disulfide 2-8; triazole 3-12) | 7 nM | 0.037 ± 0.0013 µM |
| C[C@@H](O)[C@@H]1NC(=O)[C@H]2NC(=O)[C@@H](NC(=O)CN)Cc3cn(nn3)CCC[C@H](NC(=O)[C@H](CCCNC(=N)N)NC(=O)[C@@H]3CCCN3C(=O)[C@H](CC(=O)O)NC1=O)C(=O)N[C@@H](CCCNC(N)=O)C(=O)N[C@@H](Cc1ccc(O)c(I)c1)C(=O)N[C@@H](CCC(N)=O)C(=O)N[C@H](C(=O)N[C@@H](Cc1ccc(O)cc1)C(N)=O)CSS2 [Ic, L-tyrosinamide, glycyl-L-alanyl-L-cysteinyl-L-threonyl-L-α-aspartyl-L-prolyl-L-arginyl-L-norvalyl-N5-(aminocarbonyl)-L-ornithyl-L-3-iodotyrosyl-L-glutaminyl-L-cysteinyl-cyclic 2^3,8^5-(1H-1,2,3-triazole-4,1-diyl)-cyclic-(3→12)-disulfide] (H-G[Pra][Gly(αS-SH)]TDPR[Orn(N3)][Cit][Tyr(3-I)]QCY-NH2; triazole 2-8; disulfide 3-12) | 69 ± 8.5 nM | 0.152 ± 0.071 µM |
| C[C@@H](O)[C@@H]1NC(=O)[C@H]2NC(=O)[C@@H](NC(=O)CN)CCCn3cc(nn3)C[C@H](NC(=O)[C@H](CCCNC(=N)N)NC(=O)[C@@H]3CCCN3C(=O)[C@H](CC(=O)O)NC1=O)C(=O)N[C@@H](CCCNC(N)=O)C(=O)N[C@@H](Cc1ccc(O)c(I)c1)C(=O)N[C@@H](CCC(N)=O)C(=O)N[C@H](C(=O)N[C@@H](Cc1ccc(O)cc1)C(N)=O)CSS2 [Id, L-tyrosinamide, glycyl-L-norvalyl-L-cysteinyl-L-threonyl-L-α-aspartyl-L-prolyl-L-arginyl-L-alanyl-N5-(aminocarbonyl)-L-ornithyl-L-3-iodotyrosyl-L-glutaminyl-L-cysteinyl-cyclic 2^5,8^3-(1H-1,2,3-triazole-1,4-diyl)-cyclic-(3→12)-disulfide] (H-G[Orn(N3)][Gly(αS-SH)]TDPR[Pra][Cit][Tyr(3-I)]QCY-NH2; triazole 2-8; disulfide 3-12) | ≥ 1000 nM | ≥ 1 µM |
| C[C@@H](O)[C@@H]1NC(=O)[C@@H]2CCCn3cc(nn3)C[C@@H](C(=O)N[C@@H](Cc3ccc(O)cc3)C(N)=O)NC(=O)[C@H](CCC(N)=O)NC(=O)[C@H](Cc3ccc(O)c(I)c3)NC(=O)[C@H](CCCNC(N)=O)NC(=O)[C@H](CSSC[C@H](NC(=O)CN)C(=O)N2)NC(=O)[C@H](CCCNC(=N)N)NC(=O)[C@@H]2CCCN2C(=O)[C@H](CC(=O)O)NC1=O [Ie, L-tyrosinamide, glycyl-L-cysteinyl-L-norvalyl-L-threonyl-L-α-aspartyl-L-prolyl-L-arginyl-L-cysteinyl-N5-(aminocarbonyl)-L-ornithyl-L-3-iodotyrosyl-L-glutaminyl-L-alanyl-cyclic (2→8)-disulfide-cyclic 3^5,12^3-(1H-1,2,3-triazole-1,4-diyl)] (H-GC[Orn(N3)]TDPRC[Cit][Tyr(3-I)]Q[Pra]Y-NH2; disulfide 2-8; triazole 3-12) | 6.6 ± 1.7 nM | 0.115 ± 0.056 µM |
| C[C@@H](O)[C@@H]1NC(=O)[C@@H]2Cc3cn(nn3)C[C@@H](C(=O)N[C@@H](Cc3ccc(O)cc3)C(N)=O)NC(=O)[C@H](CCC(N)=O)NC(=O)[C@H](Cc3ccc(O)c(I)c3)NC(=O)[C@H](CCCNC(N)=O)NC(=O)[C@H](CSSC[C@H](NC(=O)CN)C(=O)N2)NC(=O)[C@H](CCCNC(=N)N)NC(=O)[C@@H]2CCCN2C(=O)[C@H](CC(=O)O)NC1=O [If, L-tyrosinamide, glycyl-L-cysteinyl-L-alanyl-L-threonyl-L-α-aspartyl-L-prolyl-L-arginyl-L-cysteinyl-N5-(aminocarbonyl)-L-ornithyl-L-3-iodotyrosyl-L-glutaminyl-L-alanyl-cyclic (2→8)-disulfide-cyclic 3^3,12^3-(1H-1,2,3-triazole-4,1-diyl)] (H-GC[Pra]TDPRC[Cit][Tyr(3-I)]Q[Dap(N3)]Y-NH2; disulfide 2-8; triazole 3-12) | 12.5 ± 8.7 nM | 1.52 ± 0.116 µM |
| C[C@@H](O)[C@@H]1NC(=O)[C@@H]2CCc3cn(nn3)CCC[C@@H](C(=O)N[C@@H](Cc3ccc(O)cc3)C(=O)O)NC(=O)[C@H](CCC(N)=O)NC(=O)[C@H](Cc3c[nH]c4ccccc34)NC(=O)[C@H](CCCNC(N)=O)NC(=O)[C@H](CSSC[C@H](NC(=O)CN)C(=O)N2)NC(=O)[C@H](CCCNC(=N)N)NC(=O)[C@@H]2CCCN2C(=O)[C@H](CC(=O)O)NC1=O [Ig, L-tyrosine, glycyl-L-cysteinyl-(2S)-2-aminobutanoyl-L-threonyl-L-α-aspartyl-L-prolyl-L-arginyl-L-cysteinyl-N5-(aminocarbonyl)-L-ornithyl-L-tryptophyl-L-glutaminyl-L-norvalyl-cyclic (2→8)-disulfide-cyclic 3^4,12^5-(1H-1,2,3-triazole-4,1-diyl)] (H-GC[Hpra]TDPRC[Cit]WQ[Orn(N3)]Y-OH; disulfide 2-8; triazole 3-12) | 22 ± 1.1 nM | 0.019 µM |
| C[C@@H](O)[C@@H]1NC(=O)[C@@H]2CCc3cn(nn3)CC[C@@H](C(=O)N[C@@H](Cc3ccc(O)cc3)C(=O)O)NC(=O)[C@H](CCC(N)=O)NC(=O)[C@H](Cc3c[nH]c4ccccc34)NC(=O)[C@H](CCCNC(N)=O)NC(=O)[C@H](CSSC[C@H](NC(=O)CN)C(=O)N2)NC(=O)[C@H](CCCNC(=N)N)NC(=O)[C@@H]2CCCN2C(=O)[C@H](CC(=O)O)NC1=O [Ih, L-tyrosine, glycyl-L-cysteinyl-(2S)-2-aminobutanoyl-L-threonyl-L-α-aspartyl-L-prolyl-L-arginyl-L-cysteinyl-N5-(aminocarbonyl)-L-ornithyl-L-tryptophyl-L-glutaminyl-L-(2S)-2-aminobutanoyl-cyclic (2→8)-disulfide-cyclic 3^4,12^4-(1H-1,2,3-triazole-4,1-diyl)] (H-GC[Hpra]TDPRC[Cit]WQ[Aha]Y-OH; disulfide 2-8; triazole 3-12) | 8.5 ± 1.1 nM | 0.008 ± 0.0015 µM |
| C[C@@H](O)[C@@H]1NC(=O)[C@@H]2CCn3cc(nn3)CC[C@@H](C(=O)N[C@@H](Cc3ccc(O)cc3)C(=O)O)NC(=O)[C@H](CCC(N)=O)NC(=O)[C@H](Cc3c[nH]c4ccccc34)NC(=O)[C@H](CCCNC(N)=O)NC(=O)[C@H](CSSC[C@H](NC(=O)CN)C(=O)N2)NC(=O)[C@H](CCCNC(=N)N)NC(=O)[C@@H]2CCCN2C(=O)[C@H](CC(=O)O)NC1=O [Ii, L-tyrosine, glycyl-L-cysteinyl-(2S)-2-aminobutanoyl-L-threonyl-L-α-aspartyl-L-prolyl-L-arginyl-L-cysteinyl-N5-(aminocarbonyl)-L-ornithyl-L-tryptophyl-L-glutaminyl-L-(2S)-2-aminobutanoyl-cyclic (2→8)-disulfide-cyclic 3^4,12^4-(1H-1,2,3-triazole-1,4-diyl)] (H-GC[Aha]TDPRC[Cit]WQ[Hpra]Y-OH; disulfide 2-8; triazole 3-12) | 1.6 ± 0.6 nM | 0.0034 ± 0.0014 µM |
| C[C@@H](O)[C@@H]1NC(=O)[C@@H]2Cc3cn(nn3)CCC[C@@H](C(=O)N[C@@H](Cc3ccccc3)C(=O)O)NC(=O)[C@H](CCC(N)=O)NC(=O)[C@H](Cc3c[nH]c4ccccc34)NC(=O)[C@H](CCCNC(N)=O)NC(=O)[C@H](CSSC[C@H](NC(=O)CN)C(=O)N2)NC(=O)[C@H](CCCNC(=N)N)NC(=O)[C@@H]2CCCN2C(=O)[C@H](CC(=O)O)NC1=O [Il, L-phenylalanine, glycyl-L-cysteinyl-L-alanyl-L-threonyl-L-α-aspartyl-L-prolyl-L-arginyl-L-cysteinyl-N5-(aminocarbonyl)-L-ornithyl-L-tryptophyl-L-glutaminyl-L-norvalyl-cyclic (2→8)-disulfide-cyclic 3^3,12^5-(1H-1,2,3-triazole-4,1-diyl)] (H-GC[Pra]TDPRC[Cit]WQ[Orn(N3)]F-OH; disulfide 2-8; triazole 3-12) | – | 0.011 ± 0.0014 µM |
| C[C@@H](O)[C@@H]1NC(=O)[C@@H]2Cc3cn(nn3)CCC[C@@H](C(=O)N[C@H](Cc3ccc(O)cc3)C(=O)O)NC(=O)[C@H](CCC(N)=O)NC(=O)[C@H](Cc3c[nH]c4ccccc34)NC(=O)[C@H](CCCNC(N)=O)NC(=O)[C@H](CSSC[C@H](NC(=O)CN)C(=O)N2)NC(=O)[C@H](CCCNC(=N)N)NC(=O)[C@@H]2CCCN2C(=O)[C@H](CC(=O)O)NC1=O [Im, D-tyrosine, glycyl-L-cysteinyl-L-alanyl-L-threonyl-L-α-aspartyl-L-prolyl-L-arginyl-L-cysteinyl-N5-(aminocarbonyl)-L-ornithyl-L-tryptophyl-L-glutaminyl-L-norvalyl-cyclic (2→8)-disulfide-cyclic 3^3,12^5-(1H-1,2,3-triazole-4,1-diyl)] (H-GC[Pra]TDPRC[Cit]WQ[Orn(N3)][dY]-OH; disulfide 2-8; triazole 3-12) | – | 0.05 ± 0.0012 µM |
| C[C@@H](O)[C@@H]1NC(=O)[C@@H]2Cc3cn(nn3)CCC[C@@H](C(=O)N[C@H](CCCNC(=N)N)C(=O)O)NC(=O)[C@H](CCC(N)=O)NC(=O)[C@H](Cc3c[nH]c4ccccc34)NC(=O)[C@H](CCCNC(N)=O)NC(=O)[C@H](CSSC[C@H](NC(=O)CN)C(=O)N2)NC(=O)[C@H](CCCNC(=N)N)NC(=O)[C@@H]2CCCN2C(=O)[C@H](CC(=O)O)NC1=O [Is, D-arginine, glycyl-L-cysteinyl-L-alanyl-L-threonyl-L-α-aspartyl-L-prolyl-L-arginyl-L-cysteinyl-N5-(aminocarbonyl)-L-ornithyl-L-tryptophyl-L-glutaminyl-L-norvalyl-cyclic (2→8)-disulfide-cyclic 3^3,12^5-(1H-1,2,3-triazole-4,1-diyl)] (H-GC[Pra]TDPRC[Cit]WQ[Orn(N3)][dR]-OH; disulfide 2-8; triazole 3-12) | – | 0.059 µM |
